Laboratory results taken from PubChem BioAssay AID330 (DTP/NCI, 2004).
Inconclusive results and toxic doses are left out. Rule for the calls: active = survival T/C of 150% or more; inactive = T/C below 125% in these data.

System: P388 leukemia ip, CD2F1 mice, survival T/C
Experiment: NCI In Vivo Anticancer Drug Screen. Data for tumor model P388 Leukemia (intraperitoneal) in CD2F1 (CDF1) mice
Settings: endpoint: median survival time, higher = longer survival
Summary of the method: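 Mice carrying the transplanted tumor received test compound or vehicle. Survival was recorded in each group, and the value is the treated-group measurement divided by that of the vehicle-treated control group.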

[1] = dose: 100.0 mg/kg/injection, schedule: Q04DX003 (ip), vehicle: saline with Tween-80
[2] = dose: 60.0 mg/kg/injection, schedule: Q01DX005 (ip), vehicle: saline with Tween-80
[3] = dose: 120.0 mg/kg/injection, schedule: Q01DX005 (ip), vehicle: saline with Tween-80
[4] = dose: 240.0 mg/kg/injection, schedule: Q01DX005 (ip), vehicle: saline with Tween-80

Measured: T/C

CC(C)O[Si](OC(C)C)(OC(C)C)OC(C)C
inactive: dose: 50.0 mg/kg/injection, schedule: Q01DX009 (ip), vehicle: Klucel (hydroxypropylcellulose) (HPC) 101 % of control | dose: 100.0 mg/kg/injection, schedule: Q01DX009 (ip), vehicle: Klucel (hydroxypropylcellulose) (HPC) 105 % of control | dose: 200.0 mg/kg/injection, schedule: Q01DX009 (ip), vehicle: Klucel (hydroxypropylcellulose) (HPC) 105 % of control

O=C1NC(=O)C2(OC3c4ccccc4C=CN3C3=C2C(=O)CCC3)C(=O)N1 (stereo not given)
inactive: dose: 50.0 mg/kg/injection, schedule: Q01DX005 (ip), vehicle: saline with Tween-80 94 % of control | dose: 100.0 mg/kg/injection, schedule: Q01DX005 (ip), vehicle: saline with Tween-80 94 % of control | dose: 200.0 mg/kg/injection, schedule: Q01DX005 (ip), vehicle: saline with Tween-80 92 % of control

Cc1ccc([N+](=O)[O-])cc1NC(=O)COc1cc(Cl)c(Cl)cc1Cl
inactive: [1] 90 % of control | dose: 200.0 mg/kg/injection, schedule: Q04DX003 (ip), vehicle: saline with Tween-80 90 % of control | dose: 400.0 mg/kg/injection, schedule: Q04DX003 (ip), vehicle: saline with Tween-80 95 % of control

CC(=O)N(C(C)=O)c1cnc2c(nc3cc(C)ccn32)c1C
inactive: dose: 100.0 mg/kg/injection, schedule: Q01DX001 (ip), vehicle: saline with Tween-80 92 % of control | dose: 200.0 mg/kg/injection, schedule: Q01DX001 (ip), vehicle: saline with Tween-80 98 % of control

CCCNc1ccnc(F)n1
inactive: dose: 12.5 mg/kg/injection, schedule: Q01DX005 (ip), vehicle: Klucel (hydroxypropylcellulose) (HPC) 100 % of control | dose: 25.0 mg/kg/injection, schedule: Q01DX005 (ip), vehicle: Klucel (hydroxypropylcellulose) (HPC) 102 % of control | dose: 50.0 mg/kg/injection, schedule: Q01DX005 (ip), vehicle: Klucel (hydroxypropylcellulose) (HPC) 106 % of control | dose: 100.0 mg/kg/injection, schedule: Q01DX005 (ip), vehicle: Klucel (hydroxypropylcellulose) (HPC) 105 % of control

CC(C)=C/C(C)=N/Nc1ccc([N+](=O)[O-])cc1[N+](=O)[O-]
inactive: dose: 25.0 mg/kg/injection, schedule: Q04DX003 (ip), vehicle: saline with Tween-80 100 % of control | dose: 50.0 mg/kg/injection, schedule: Q04DX003 (ip), vehicle: saline with Tween-80 100 % of control | [1] 100 % of control

O=S(=O)(c1ccccn1)c1nc2ccccc2s1
inactive: [2] 94 % of control | [3] 90 % of control | [4] 94 % of control

O=C(c1ccccc1)C1(Cl)CCCCC1
inactive: dose: 25.0 mg/kg/injection, schedule: Q01DX009 (ip), vehicle: saline + alcohol 99 % of control | dose: 50.0 mg/kg/injection, schedule: Q01DX009 (ip), vehicle: saline + Tween-80 + alcohol 108 % of control | dose: 50.0 mg/kg/injection, schedule: Q01DX009 (ip), vehicle: saline + alcohol 91 % of control | dose: 100.0 mg/kg/injection, schedule: Q01DX009 (ip), vehicle: saline + Tween-80 + alcohol 104 % of control | dose: 100.0 mg/kg/injection, schedule: Q01DX009 (ip), vehicle: saline + alcohol 100 % of control | dose: 200.0 mg/kg/injection, schedule: Q01DX009 (ip), vehicle: saline + Tween-80 + alcohol 99 % of control | dose: 200.0 mg/kg/injection, schedule: Q01DX009 (ip), vehicle: saline + alcohol 92 % of control | dose: 400.0 mg/kg/injection, schedule: Q01DX009 (ip), vehicle: saline + Tween-80 + alcohol 112 % of control

O=C1CCC(C2(O)c3ccccc3-c3ccccc32)C(=O)N1 (stereo not given)
inactive: [2] 95 % of control | [3] 96 % of control | [4] 95 % of control

N#Cc1ccc(N=NN2CCOC2)cc1
inactive: [2] 86 % of control | [3] 100 % of control | [4] 93 % of control
